# Data reported in patent US11292807B2 (OCEANS LTD., priority 2015, dated 2022).
# Where two headings read alike, the source gives them in different places.
# Columns and labels:
# A549 (lung carcinoma) = experiment: CIMA assay (colorimetric indicator of metabolic activity), cell viability, A549; details: for Fold change in viability AVG: A549
# [1] = CIMA assay, cell viability, CCD1079SK; details: human, Average cell viability, CCD
# Experimental: (§1) Stock solutions of the extracts were prepared in dimethylsulfoxide (DMSO) at 10 mg/mL and stored in 200 μl aliquots at −20° C. until analysis. This preparation ensured that the DMSO delivered to cells in culture never exceeded 1%.
# (§2) Prepared extracts were assessed following chronic exposure conditions in which cells were seeded at 2×10^3 cells/well (96 well-plate) and incubated with test compounds for 72 h. Each compound was evaluated over a range of concentrations (0, 10, 25, 50 or 100 μg/ml). Cell proliferation was initially assessed using a standard colorimetric indicator of metabolic activity (CIMA) assay. In this assay, tetrazole reduction was evaluated as a measure of metabolic function that evaluates mitochondrial activity to determine the extent of cell proliferation within a culture. This assay is based on the reduction of yellow tetrazolium salt to purple formazan by mitochondrial reductases enzyme in viable cells, resulting in a color changed that confers a change in absorbance.
# [2] = tested on: CCD1079SK (fibroblast, noncancerous but proliferating); experiment: CIMA assay, cell viability, CCD1079SK; details: CCD
# Experimental: as §1, §2
# [3] = tested on: U373 (glioblastoma-astrocytoma); experiment: CIMA assay, cell viability, U373; details: for Fold change in viability AVG: U373
# [4] = tested on: SKOV3 (ovarian adenocarcinoma); experiment: CIMA assay, cell viability, SKOV3; details: for Fold change in viability AVG: SKOV
# PC3 = experiment: CIMA assay, cell viability, PC3; details: for Fold change in viability AVG: PC3
# MDA-MB [5] = details: MDA-MB
# MDA-MB [6] = experiment: cells; details: Homo sapiens, read-out: Average cell viability, MDA-MB
# [7] = tested on: THP-1 (acute monocytic leukemia); experiment: CIMA assay, cell viability, THP-1; details: for Fold change in viability AVG: THP-1
compound,measurement,setting,value
"CC/C=C\C/C=C\C/C=C\C/C=C\C/C=C\CCCC(=O)OCC(O)COC1OC(CO)C(O)C(O)C1O (stereo not shown) [Compound 13, lyso-MGDG C20:5]",A549 AVG,"A549 (lung carcinoma); A549, sample at 1 ug/mL",0.67
same,A549 AVG,"A549 (lung carcinoma); A549, sample at 10 ug/mL",0.64
same,A549 AVG,"A549 (lung carcinoma); A549, sample at 50 ug/mL",0.67
same,A549 AVG,"A549 (lung carcinoma); A549, sample at 100 ug/mL",0.38
same,Fold change in viability AVG,A549 (lung carcinoma); 1 ug/mL,0.67
same,Fold change in viability AVG,A549 (lung carcinoma); 10 ug/mL,0.64
same,Fold change in viability AVG,A549 (lung carcinoma); 50 ug/mL,0.67
same,Fold change in viability AVG,A549 (lung carcinoma); 100 ug/mL,0.38
same,viability at 1 µg/mL,"A549 (lung carcinoma); Homo sapiens, A549, read-out: Average cell viability, A549, 1 ug/mL",57%
same,viability at 10 µg/mL,"A549 (lung carcinoma); Homo sapiens, A549, read-out: Average cell viability, A549, 10 ug/mL",55%
same,viability at 50 µg/mL,"A549 (lung carcinoma); Homo sapiens, A549, read-out: Average cell viability, A549, 50 ug/mL",57%
same,viability at 100 µg/mL,"A549 (lung carcinoma); Homo sapiens, A549, read-out: Average cell viability, A549, 100 ug/mL",32%
same,"viability at 72 h, 1 ug/mL","[1]; CCD1079SK fibroblast cells (noncancerous, proliferating), 1 ug/mL",103%
same,"viability at 72 h, 10 ug/mL","[1]; CCD1079SK fibroblasts (noncancerous, proliferating), 10 ug/mL",99%
same,"viability at 72 h, 50 ug/mL","[1]; CCD1079SK fibroblasts (noncancerous, proliferating), 50 ug/mL",22%
same,"viability at 72 h, 100 ug/mL","[1]; CCD1079SK fibroblasts (noncancerous, proliferating), 100 ug/mL",14%
same,Fold change in viability AVG,[2]; 1 ug/mL,1.13
same,Fold change in viability AVG,[2]; 10 ug/mL,1.09
same,Fold change in viability AVG,[2]; 50 ug/mL,0.24
same,Fold change in viability AVG,[2]; 100 ug/mL,0.15
same,viability at 1 µg/mL,"[3]; Homo sapiens, U373 MG, read-out: Average cell viability, U373, 1 ug/mL",111%
same,viability at 10 µg/mL,"[3]; Homo sapiens, U373 MG, read-out: Average cell viability, U373, 10 ug/mL",100%
same,viability at 50 µg/mL,"[3]; Homo sapiens, U373 MG, read-out: Average cell viability, U373, 50 ug/mL",7%
same,viability at 100 µg/mL,"[3]; Homo sapiens, U373 MG, read-out: Average cell viability, U373, 100 ug/mL",6%
same,U373 AVG,"[3]; U373, sample at 1 ug/mL",1.13
same,U373 AVG,"[3]; U373, sample at 10 ug/mL",1.02
same,U373 AVG,"[3]; U373, sample at 50 ug/mL",0.07
same,U373 AVG,"[3]; U373, sample at 100 ug/mL",0.06
same,Fold change in viability AVG,[3]; 1 ug/mL,1.13
same,Fold change in viability AVG,[3]; 10 ug/mL,1.02
same,Fold change in viability AVG,[3]; 50 ug/mL,0.07
same,Fold change in viability AVG,[3]; 100 ug/mL,0.06
same,viability at 1 µg/mL,"[4]; Homo sapiens, SK-OV-3, read-out: Average cell viability, SKOV, 1 ug/mL",125%
same,viability at 10 µg/mL,"[4]; Homo sapiens, SK-OV-3, read-out: Average cell viability, SKOV, 10 ug/mL",105%
same,viability at 50 µg/mL,"[4]; Homo sapiens, SK-OV-3, read-out: Average cell viability, SKOV, 50 ug/mL",78%
same,viability at 100 µg/mL,"[4]; Homo sapiens, SK-OV-3, read-out: Average cell viability, SKOV, 100 ug/mL",34%
same,Fold change in viability AVG,[4]; 1 ug/mL,1.34
same,Fold change in viability AVG,[4]; 10 ug/mL,1.13
same,Fold change in viability AVG,[4]; 50 ug/mL,0.84
same,Fold change in viability AVG,[4]; 100 ug/mL,0.37
same,viability at 1 µg/mL,"PC3; Homo sapiens, PC-3, read-out: Average cell viability, PC3, 1 ug/mL",104%
same,viability at 10 µg/mL,"PC3; Homo sapiens, PC-3, read-out: Average cell viability, PC3, 10 ug/mL",97%
same,viability at 50 µg/mL,"PC3; Homo sapiens, PC-3, read-out: Average cell viability, PC3, 50 ug/mL",16%
same,viability at 100 µg/mL,"PC3; Homo sapiens, PC-3, read-out: Average cell viability, PC3, 100 ug/mL",12%
same,PC3 AVG,"PC3; PC3, sample at 1 ug/mL",1.08
same,PC3 AVG,"PC3; PC3, sample at 10 ug/mL",1.01
same,PC3 AVG,"PC3; PC3, sample at 50 ug/mL",0.16
same,PC3 AVG,"PC3; PC3, sample at 100 ug/mL",0.12
same,Fold change in viability AVG,PC3; 1 ug/mL,1.08
same,Fold change in viability AVG,PC3; 10 ug/mL,1.01
same,Fold change in viability AVG,PC3; 50 ug/mL,0.16
same,Fold change in viability AVG,PC3; 100 ug/mL,0.12
same,MDA-MB AVG,MDA-MB [5]; sample at 1 ug/mL,1.11
same,MDA-MB AVG,MDA-MB [5]; sample at 10 ug/mL,1.14
same,MDA-MB AVG,MDA-MB [5]; sample at 50 ug/mL,0.33
same,MDA-MB AVG,MDA-MB [5]; sample at 100 ug/mL,0.28
same,Fold change in viability AVG,MDA-MB [5]; 1 ug/mL,1.11
same,Fold change in viability AVG,MDA-MB [5]; 10 ug/mL,1.14
same,Fold change in viability AVG,MDA-MB [5]; 50 ug/mL,0.33
same,Fold change in viability AVG,MDA-MB [5]; 100 ug/mL,0.28
same,viability at 1 µg/mL,MDA-MB [6]; 1 ug/mL,102%
same,viability at 10 µg/mL,MDA-MB [6]; 10 ug/mL,105%
same,viability at 50 µg/mL,MDA-MB [6]; 50 ug/mL,30%
same,viability at 100 µg/mL,MDA-MB [6]; 100 ug/mL,25%
same,viability at 1 µg/mL,"[7]; Homo sapiens, THP-1, read-out: Average cell viability, THP-1, 1 ug/mL",104%
same,viability at 10 µg/mL,"[7]; Homo sapiens, THP-1, read-out: Average cell viability, THP-1, 10 ug/mL",101%
same,viability at 50 µg/mL,"[7]; Homo sapiens, THP-1, read-out: Average cell viability, THP-1, 50 ug/mL",40%
same,viability at 100 µg/mL,"[7]; Homo sapiens, THP-1, read-out: Average cell viability, THP-1, 100 ug/mL",27%
same,THP-1 AVG,"[7]; THP-1, sample at 1 ug/mL",1.19
same,THP-1 AVG,"[7]; THP-1, sample at 10 ug/mL",1.14
same,THP-1 AVG,"[7]; THP-1, sample at 50 ug/mL",0.46
same,THP-1 AVG,"[7]; THP-1, sample at 100 ug/mL",0.31
same,Fold change in viability AVG,[7]; 1 ug/mL,1.19
same,Fold change in viability AVG,[7]; 10 ug/mL,1.14
same,Fold change in viability AVG,[7]; 50 ug/mL,0.46
same,Fold change in viability AVG,[7]; 100 ug/mL,0.31
